Patent US10179767B2 (GENENTECH, INC., priority 2015, dated 2019)

molecular target: T1, hNav1.7 (Homo sapiens, UniProt Q15858); assay: Tritiated sulfonamide binding to membranes from cells expressing hNav1.7 and the β1 subunit (Nav 1.7 ligand binding assay, competitive); conditions: competition with 100 pM [3H]compound, room temperature, 18 h
T1 construct: expressed in transfected cells
Procedure: Tritiated Sulfonamide Binding to Membranes Isolated from Cells that Heterologously Express hNav1.7 and the β1 Subunit
Preparation of membranes containing recombinantly expressed sodium channels: Frozen recombinant cell pellets were thawed on ice and diluted to 4 times the cell pellet weight with ice cold 50 mM Tris HCl, pH 7.4 buffer. The cell suspensions were homogenized on ice using a motorized glass dounce homogeniser. Homogenates were further diluted 8.4 times with ice cold 50 mM Tris HCl, pH 7.4 buffer and then centrifuged at 200×g at 4° C. for 15 min. The supernatants were collected and centrifuged at 10000×g at 4° C. for 50 min. The pellets were then re-suspended in 100 mM NaCl, 20 mM Tris HCl, pH 7.4 buffer containing 1% v/v protease inhibitors (Calbiochem) and re-homogenized on ice. The homogenized membranes were then processed through a syringe equipped with a 26 gauge needle. Protein concentrations were determined by Bradford Assay and the membranes were stored at −80° C.
Radioligand Binding Studies:
Saturation experiments. A competitive NaV1.7 inhibitor having a methyl group was tritiated. Three tritiums were incorporated in place of methyl hydrogens to generate [^3H]compound. Binding of this radioligand was preformed in 5 mL borosilicate glass test tubes at room temperature. Binding was initiated by adding membranes to increasing concentrations of [^3H]compound in 100 mM NaCl, 20 mM Tris HCl, pH 7.4 buffer containing 0.01% w/v bovine serum albumin (BSA) for 18 h. Non-specific binding was determined in the presence of 1 μM unlabelled compound. After 18 h, the reactants were filtered through GF/C glass fiber filters presoaked in 0.5% w/v polyethylene imine Filters were washed with 15 mL ice cold 100 mM NaCl, 20 mM Tris HCl, pH7.4 buffer containing 0.25% BSA to separate bound from free ligand. [^3H]compound bound to filters was quantified by liquid scintillation counting.
Competitive Binding Experiments:
Binding reactions were preformed in 96-well polypropylene plates at room temperature for 18 h. In 360 μL, membranes were incubated with 100 pM [^3H]compound and increasing concentrations of Test Compound. Non-specific binding was defined in the presence of 1 μM unlabelled compound. Reactions were transferred and filtered through 96-well glass fiber/C filter plates presoaked with 0.5% polyethylene imine. The filtered reactions were washed 5 times with 200 μL ice cold buffer containing 0.25% BSA. Bound radioactivity was determined by liquid scintillation counting. Data Analysis: For saturation experiments, non-specific binding was subtracted from total binding to provide specific binding and these values were recalculated in terms of pmol ligand bound per mg protein. Saturation curves were constructed and dissociation constants were calculated using the single site ligand binding model: Beq=(Bmax*X)/(X+Kd), where Beq is the amount of ligand bound at equilibrium, Bmax is the maximum receptor density, Kd is the dissociation constant for the ligand, and X is the free ligand concentration. For competition studies percent inhibition was determined and IC50 values were calculated using a 4 parameter logistic model (% inhibition=(A+((B−A)/(1+((x/C)⨣D)))) using XLfit, where A and B are the maximal and minimum inhibition respectively, C is the IC50 concentration and D is the (Hill) slope.

T1 sequence (Q15858 whole entry): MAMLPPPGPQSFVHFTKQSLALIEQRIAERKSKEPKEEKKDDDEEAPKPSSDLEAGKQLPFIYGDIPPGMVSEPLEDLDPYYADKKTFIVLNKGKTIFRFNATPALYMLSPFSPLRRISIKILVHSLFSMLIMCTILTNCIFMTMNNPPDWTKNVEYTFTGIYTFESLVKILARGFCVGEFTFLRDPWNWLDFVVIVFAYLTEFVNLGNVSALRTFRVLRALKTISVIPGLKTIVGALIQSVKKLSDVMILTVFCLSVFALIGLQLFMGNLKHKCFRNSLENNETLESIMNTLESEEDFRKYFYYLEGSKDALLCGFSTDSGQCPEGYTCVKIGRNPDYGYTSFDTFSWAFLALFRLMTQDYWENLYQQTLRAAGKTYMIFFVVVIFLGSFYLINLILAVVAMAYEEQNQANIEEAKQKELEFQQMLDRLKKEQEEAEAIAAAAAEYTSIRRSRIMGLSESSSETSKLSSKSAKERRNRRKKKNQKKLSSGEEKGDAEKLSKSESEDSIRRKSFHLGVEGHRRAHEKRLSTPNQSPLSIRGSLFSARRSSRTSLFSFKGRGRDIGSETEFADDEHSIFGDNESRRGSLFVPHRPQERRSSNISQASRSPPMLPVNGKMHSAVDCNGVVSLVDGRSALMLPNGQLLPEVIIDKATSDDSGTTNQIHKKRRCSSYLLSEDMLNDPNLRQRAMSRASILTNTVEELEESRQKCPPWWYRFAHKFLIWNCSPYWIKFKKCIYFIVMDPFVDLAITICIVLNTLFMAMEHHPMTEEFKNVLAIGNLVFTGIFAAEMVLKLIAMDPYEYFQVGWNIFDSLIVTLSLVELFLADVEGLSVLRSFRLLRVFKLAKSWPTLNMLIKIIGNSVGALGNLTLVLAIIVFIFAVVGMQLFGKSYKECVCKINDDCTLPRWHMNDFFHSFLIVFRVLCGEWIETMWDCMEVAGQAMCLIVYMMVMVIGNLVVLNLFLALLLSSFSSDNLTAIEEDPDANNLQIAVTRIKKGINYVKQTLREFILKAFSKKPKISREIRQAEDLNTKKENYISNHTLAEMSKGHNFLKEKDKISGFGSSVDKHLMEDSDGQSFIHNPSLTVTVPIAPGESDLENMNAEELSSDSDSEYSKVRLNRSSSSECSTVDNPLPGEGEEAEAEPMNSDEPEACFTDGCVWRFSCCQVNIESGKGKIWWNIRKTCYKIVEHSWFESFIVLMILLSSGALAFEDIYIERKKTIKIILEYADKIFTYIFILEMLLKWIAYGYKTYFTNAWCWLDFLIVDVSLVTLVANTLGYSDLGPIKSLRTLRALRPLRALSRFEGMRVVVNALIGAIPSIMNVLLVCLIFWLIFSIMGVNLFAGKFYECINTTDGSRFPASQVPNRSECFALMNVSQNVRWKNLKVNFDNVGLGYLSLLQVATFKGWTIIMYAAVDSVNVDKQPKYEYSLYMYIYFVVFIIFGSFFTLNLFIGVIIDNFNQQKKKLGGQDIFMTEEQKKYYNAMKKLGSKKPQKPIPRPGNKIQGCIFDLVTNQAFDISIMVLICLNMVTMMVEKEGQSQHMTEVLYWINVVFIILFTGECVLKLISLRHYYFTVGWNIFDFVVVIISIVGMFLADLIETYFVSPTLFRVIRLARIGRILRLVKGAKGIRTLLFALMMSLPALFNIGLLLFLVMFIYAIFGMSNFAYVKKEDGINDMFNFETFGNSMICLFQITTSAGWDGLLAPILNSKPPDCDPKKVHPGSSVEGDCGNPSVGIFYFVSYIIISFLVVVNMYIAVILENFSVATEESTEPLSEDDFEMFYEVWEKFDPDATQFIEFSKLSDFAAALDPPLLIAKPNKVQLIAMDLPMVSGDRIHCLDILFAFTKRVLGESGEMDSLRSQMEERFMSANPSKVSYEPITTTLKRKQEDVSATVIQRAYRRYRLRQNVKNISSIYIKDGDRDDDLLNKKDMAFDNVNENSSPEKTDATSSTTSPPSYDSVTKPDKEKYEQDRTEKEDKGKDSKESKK
T1 sequence (Q07699 19-218 partner): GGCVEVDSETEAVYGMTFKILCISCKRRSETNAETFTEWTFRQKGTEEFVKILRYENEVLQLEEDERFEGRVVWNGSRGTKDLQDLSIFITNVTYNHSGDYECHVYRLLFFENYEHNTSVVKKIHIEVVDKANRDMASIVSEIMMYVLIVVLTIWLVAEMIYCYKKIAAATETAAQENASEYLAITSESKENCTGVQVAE

SMILES	IC50
N#Cc1c(Cl)cc(Cl)cc1CN1CCC(COc2cc(F)c(C(=O)NS(=O)(=O)C3CC3)cc2C2CC2)CC1 [Example 17, 5-Cyclopropyl-N-(cyclopropylsulfonyl)-4-((1-(3,5-dichloro-2-cyanobenzyl)piperidin-4-yl)methoxy)-2-fluorobenzamide]	5.9 nM
COc1c(Cl)cc(Cl)cc1[C@@H](C)N1CCC(COc2cc(F)c(C(=O)NS(C)(=O)=O)cc2C2CC2)CC1 (single isomer, unassigned) [Example 15]	5.1 nM
CC(c1ncc(Cl)cc1Cl)N1CCC(COc2cc(F)c(C(=O)NS(C)(=O)=O)cc2C2CC2)CC1 (stereo not drawn) [Example 44, 5-cyclopropyl-4-((1-(1-(3,5-dichloropyridin-2-yl)ethyl)piperidin-4-yl)methoxy)-2-fluoro-N-(methylsulfonyl)benzamide]	18 nM
COc1c(Cl)cc(Cl)cc1[C@H](C)N1CCC(COc2cc(F)c(C(=O)NS(C)(=O)=O)cc2C2CC2)CC1 (single isomer, unassigned) [Example 16]	5.7 nM
CC(c1cc(C(F)(F)F)cc(C2CC2)n1)N1CCC(COc2cc(F)c(C(=O)NS(C)(=O)=O)cc2C2CC2)CC1 (stereo not drawn) [Example 50, 5-cyclopropyl-4-((1-(1-(6-cyclopropyl-4-(trifluoromethyl)pyridin-2-yl)ethyl)piperidin-4-yl)methoxy)-2-fluoro-N-(methylsulfonyl)benzamide]	9.1 nM
CCS(=O)(=O)NC(=O)c1cc(C2CC2)c(OCC2CCN(Cc3cc(Cl)cc(Cl)c3OC)CC2)cc1F [Example 13, 5-Cyclopropyl-4-((1-(3,5-dichloro-2-methoxybenzyl)piperidin-4-yl)methoxy)-N-(ethylsulfonyl)-2-fluorobenzamide]	4.1 nM
C[C@@H](c1ccc(Cl)c(Cl)c1)N1CCC(F)(COc2cc(F)c(C(=O)NS(C)(=O)=O)cc2C2CC2)CC1 (single isomer, unassigned) [Example 22]	5.6 nM
CC(C)Oc1ncc(CN2CCC(F)(COc3cc(F)c(C(=O)NS(C)(=O)=O)cc3C3CC3)CC2)cc1Cl [Example 55, 4-((1-((5-chloro-6-isopropoxypyridin-3-yl)methyl)-4-fluoropiperidin-4-yl)methoxy)-5-cyclopropyl-2-fluoro-N-(methylsulfonyl)benzamide]	5.6 nM
C[C@@H]1[C@H](Oc2cc(F)c(C(=O)NS(C)(=O)=O)cc2C2CC2)CCCN1Cc1cc(Cl)cc(Cl)c1 [Example 52, 5-cyclopropyl-4-(((2R,3R)-1-(3,5-dichlorobenzyl)-2-methylpiperidin-3-yl)oxy)-2-fluoro-N-(methylsulfonyl)benzamide]	2.4 nM
C[C@@H](c1ccc(F)c(Cl)c1)N1CCC(COc2cc(F)c(C(=O)NS(C)(=O)=O)cc2C2CC2)CC1 (single isomer, unassigned) [Example 36]	6 nM
C[C@H](c1cc(C(F)(F)F)cc(Cl)c1F)N1CCC(C#N)(COc2cc(F)c(C(=O)NS(C)(=O)=O)cc2C2CC2)CC1 (single isomer, unassigned) [Example 8]	9.8 nM
C[C@H](c1cc(F)cc(Cl)c1)N1CCC(F)(COc2cc(F)c(C(=O)NS(C)(=O)=O)cc2C2CC2)CC1 (single isomer, unassigned) [Example 25]	2 nM
CS(=O)(=O)NC(=O)c1cc(C2CC2)c(OCC2CCN(Cc3cc(Cl)cc(C4CC4)n3)CC2)cc1F [Example 49, 4-((1-((4-chloro-6-cyclopropylpyridin-2-yl)methyl)piperidin-4-yl)methoxy)-5-cyclopropyl-2-fluoro-N-(methylsulfonyl)benzamide]	11 nM
CS(=O)(=O)NC(=O)c1cc(C2CC2)c(OCC2CCN(Cc3cc(C(F)(F)F)cc(Cl)c3C#N)CC2)cc1F [Example 3, 4-((1-(3-chloro-2-cyano-5-(trifluoromethyl)benzyl)piperidin-4-yl)methoxy)-5-cyclopropyl-2-fluoro-N-(methylsulfonyl)benzamide]	4.5 nM
CS(=O)(=O)NC(=O)c1cc(C2CC2)c(OCC2CCN([C@@H](c3cc(Cl)cc(Cl)c3)C3COC3)CC2)cc1F (single isomer, unassigned) [Example 35]	8.2 nM
